# Measurements: patent US20160145202A1 (priority 2013, published 2016)
# System: Septoria tritici
# Assay: Glass house trial: control of leaf blotch on wheat caused by Septoria tritici (SEPTTR_P1)
# Assay type: in vivo
# Conditions: 300 ppm, protective P1, wheat seedlings sprayed to run-off, visually assessed after 4 weeks
# Procedure: The spray solutions were prepared in several steps:
# The stock solution was prepared as follows: 0.84 ml of a 1:1 mixture of cyclohexanone and dimethylsulfoxide was added to 16.8 mg of active ingredient. Next, 27.16 ml of a mixture of water, acetone (10%), the emulsifier Wettol (0.1%) and the wetting agent Silwet (0.05%) was added.
# This stock solution was then further diluted with the described solvent-emulsifier-water mixture to the desired concentrations. Two different compound applications were used: “protective, P1” and “curative, K1”, where the first means that the compound solution is applied a day before the fungus while the latter represents the opposite ordering.
# Control of Leaf Blotch on Wheat Caused by Septoria tritici (SEPTTR_P1)
# Leaves of pot-grown wheat seedling were sprayed to run-off with an aqueous suspension of F-1 (300 ppm), prepared as described. The plants were allowed to air-dry. At the following day the plants were inoculated with an aqueous spore suspension of Septoria tritici. Then the trial plants were immediately transferred to a humid chamber at 18-22° C. and a relative humidity close to 100%. After 4 days the plants were transferred to a chamber with 18-22° C. and a relative humidity close to 70%.
smiles,measurement,value
"CNC(=O)OCc1cc(/C(C)=N/OCc2cccc(C)n2)ccc1Cl [F-1, [2-chloro-5-[(E)-C-methyl-N-[(6-methyl-2-pyridyl)methoxy]carbonimidoyl]phenyl]methyl N-methylcarbamate]",extent of fungal attack on the leaves (infection compared to untreated plants),≤ 30%
